# From patent US10596224B2, “Method of treating a wound, comprising the step of administering a composition including a substance P” (Biosolution Co., Ltd, priority 2016, dated 2020)
# Entries after “also recorded” stand apart in the source; their conditions may differ. Like-named read-outs stand apart in the source and are kept apart here.
# Legend:
# [1] = system: full-thickness skin wound models; experiment: Epidermal regeneration effect (epidermal gaps, H&E) in skin wound mouse model; assay type: in vivo, BALB/c female mice; details: 6 days after administration, compared to the control groups
# Excerpt: (§1) Commercially available wound healing agents, Madecassol care ointment (Dongguk Pharmaceuticals, Korea) and Easyef cell regenerating ointment (Daewoong Pharmaceuticals) were used as positive control groups.
# (§2) In detail, 7-week-old BALB/c female mice (DooYeol Biotech) were acclimated for 1 week, and then anesthetized by an intraperitoneal injection of a mixture of Ketamine and rumpun. The dorsal hair was removed using an electric razor and a hair removal cream (Veet). Povidone and 70% ethanol were used to disinfect the area from which the epidermis was to be removed, and a 5-mm biopsy punch was used to apply a full-thickness wound on both sides of the lower buttocks, while avoiding the spine of the mouse. To prevent spontaneous wound contraction by the superficial muscle of the mouse, a silicone ring with an outer diameter of 15 mm and an inner diameter of 8 mm was attached around the wounded area using suture threads.
# (§3) Thereafter, to the wound site, phosphate buffered saline as the negative control was administered, and Madecassol care and Easyef cell regenerating ointments as the positive controls were administered. […] Specifically, each 30 μl of SP and each novel formulations were administered to the full-thickness wound once a day for 5 days.
# [2] = system: full-thickness skin wound models; experiment: Granulation tissue maturation (H&E) in skin wound mouse model; assay type: in vivo, BALB/c female mice; details: 6 days after administration, compared to the negative control group
# Excerpt: as §1, §2, §3
# [3] = Stability of SP over time in cell growth media KGM and FGM (SP ELISA kit); assay type: physicochemical; details: stored in KGM and FGM media, 0-24 hrs
# Description: SP and SP of SP+HEC+polysorbate 80+sodium thiosulfate formulation were stored in cell growth media for human epithelial keratinocyte (HEK) culture (keratinocyte growth media; KGM) and human dermal fibroblast (HDF) culture (fibroblast growth media; FGM).
# Each sample was taken out of the media after a predetermined period of time (0 hr, 3 hrs, 6 hrs, 12 hrs and 24 hrs), and diluted with phosphate buffered saline, and then the SP content in each sample was analyzed using SP ELISA kit.
# [4] = system: human dermal fibroblast cells; details: for cell proliferation rate: 48 hours, MTT
# Description: The cell proliferative effect of SP was analyzed by MTT assay.
# In detail, 100 μl of a human dermal fibroblast cell suspension of 3×10^4 CFU/ml was put in a 96-well culture plate, and incubated for 24 hours. FGM medium (fibroblast growth medium; fibroblast basal medium containing hFGF-B, insulin, fetal bovine serum (FBS), gentamicin, and amphotericin-B) were removed, and then 180 μl of fresh FGM medium was dispensed into each well, and then 20 μl of SP diluted with phosphate buffered saline (PBS) was inoculated by varying its concentration (0.1, 1, 5, 10, 50, and 100 μg/ml).
# Meanwhile, 20 μl of phosphate buffered saline was used as a negative control group. After inoculation, cells were incubated at 37° C. for 48 hours, and then the medium, SP, and negative control group were removed. The cells were washed with the phosphate buffered saline three times. 90 μl of FGM medium was mixed with 10 μl of MTT solution (0.5 mg/ml), and treated to each well, and allowed to react at 37° C. for 4 hours.
# Finally, the cells were washed with the phosphate buffered saline, and stirred in 150 μl of isopropyl alcohol solution for 10 minutes, and absorbance at 570 nm was measured.
# [5] = system: full-thickness skin wound models; experiment: Wound size-reducing effect in skin wound mouse model; assay type: in vivo, BALB/c female mice; details: 6 days after administration
# Excerpt: as §1, §2
# Thereafter, to the wound site, phosphate buffered saline as the negative control was administered, and Madecassol care and Easyef cell regenerating ointments as the positive controls were administered. […]
# In detail, the reduced wound size was calculated as the size of wound area by analyzing an image of the wound at 0 day and 6 days after administration of the novel formulations. The size of wound area was quantified by using Photoshop.
# [6] = Stability of SP at different storage temperatures (SP ELISA kit); assay type: physicochemical; details: stored at 60° C., 37° C., RT, and 4° C. for 4 weeks
# Description: Further, it was examined with respect to whether SP stability in each sample was maintained at different temperatures. […] The samples before storage were used as control groups. SP stability was analyzed using SP ELISA kit.
# [7] = system: full-thickness skin wound models; experiment: Angiogenic effect in skin wound mouse model; assay type: in vivo, BALB/c female mice; details: biopsy 6 days after administration, FIG. 5
# Excerpt: In detail, increased angiogenesis was confirmed by examining an image of angiogenesis on the skin tissue with the naked eye after biopsy of the skin tissue of the wound area 6 days after administration of the novel formulations.
compound,measurement,setting,value
CSCC[C@H](NC(=O)[C@H](CC(C)C)NC(=O)CNC(=O)[C@H](Cc1ccccc1)NC(=O)[C@H](Cc1ccccc1)NC(=O)[C@H](CCC(N)=O)NC(=O)[C@H](CCC(N)=O)NC(=O)[C@@H]1CCCN1C(=O)[C@H](CCCCN)NC(=O)[C@@H]1CCCN1C(=O)[C@@H](N)CCCNC(=N)N)C(N)=O [SP],epidermal gaps,[1],about 60%
same,granulation tissue maturation,[2],compact granulation tissue formation
same,SP content over time (SP stability),[3],reduction in the SP content over time
same,cytotoxicity,[4],without cytotoxicity
same,cell proliferation rate,[4]; SP 5 μg/ml,≥ 200%
same,proliferation rate compared to the negative control group,"[4]; SP 5 μg/ml, negative control phosphate buffered saline",≥ 2.2 times
same,cell proliferation rate,[4]; all concentration groups of 0.1 μg/ml to 100 μg/ml SP,≥ 170%
same,size of the wound examined with the naked eye,[5],no significant difference in the wound size; also recorded: slight difference
same,wound area (size of wound area quantified),"[5]; 30 μl once a day for 5 days, topical to wound",≥ 40%
same,SP content according to temperature conditions (SP stability),[6],lower SP content than the SP+HEC+polysorbate 80+sodium thiosulfate formulation; also recorded: changes in the SP content according to temperature changes
same,angiogenesis on the skin tissue (naked eye),[7],insignificant
